In patent publication US20220290200A1, “GENETICALLY MODIFIED HOST CELLS PRODUCING GLYCOSYLATED CANNABINOIDS” (OCTARINE BIO IVS, priority 2019, published 2022):

Key:
[1] = Hepatic microsomal stability; details: for t1/2 / CLint: human liver microsomes 0.5 mg/mL, 1 μM compound, NADPH and UDP-glucuronic acid
Procedure: Hepatic microsomal stability of cannabinoid glycosides were determined by incubating 2 μM of molecule with HepaRG™ human liver microsomes (Sigma) supplemented with NADPH at 37° C. Samples were taken at 0, 5, 15, 30, 45, and 60 minute intervals and analyzed as described above. Verapamil (rapid clearance) and Diazepam (low clearance) were used as references.
Alternatively, hepatic microsomal stability of cannabinoid glycosides was determined as follows. HepaRG™ pooled human liver microsomes (Sigma) (final protein concentration=0.5 mg/mL) were mixed with alamethicin (25 μg/mg), 0.1 M phosphate buffer (pH=7.4) and the test compound (1 μM final in DMSO) and incubated at 37° C. prior to addition of NADPH (final concentration 1 mM) and UDP-glucuronic acid (final concentration 1 mM) to initiate the reaction. The compound was incubated for 0, 5, 15, 30, and 45 minutes and the reaction terminated by adding acetonitrile in a 1:3 ratio (v/v). Reactions were centrifuged at 3000 rpm for 20 min at 4° C. to precipitate the protein. Following protein precipitation, internal standards were added to the sample supernatants and analyzed by LC-MS to measure the concentration of compound remaining at each time point, quantification was achieved by comparison to authentic analytical standards.
In vitro hepatic microsomal stability was performed for CBD, CBD-1′-O-β-D-glucoside (OB1), and CBD-1′-O-β-D-glucosyl-3′-O-β-D-glucoside (OB6) as described above and the intrinsic clearance (CLint) and half-life (t1/2) of each compound was determined.

[2] = Chemical stability under acidic, alkaline, oxidative and heat stress (HPLC); details: for % of substrate remaining in solution: HPLC, relative to control at 30° C. pH 7.0; for percent remaining after 24 h exposure relative to a control at ambient conditions: alkaline conditions (NaOH, final pH 12.5); for release of CBD aglycone (stability of the glucoside bond): any condition (acidic, alkaline, oxidative, heat)
Procedure: Alternatively, chemical stability of cannabinoid glycosides was determined under alkaline, acidic, oxidative and heat stress as follows. 25 mM stock solutions of cannabinoids and cannabinoid glycosides were prepared in 100% methanol. 15 μL is mixed with 5 μL of 400 mM HCl solution (final pH=1.1), 400 mM NaOH solution (Final pH=12.5), 12% H2O2 solution (final concentration 3%), or H2O pH 7.0. […] A control under ambient conditions was also prepared where 15 μL of the cannabinoid or cannabinoid glycoside was added to 5 μL H2O pH 7.0 and incubated at 30° C. After 24 h samples were placed on ice and 60 μL of ice-cold 100% methanol is added to each sample. Samples were centrifuged and transferred to HPLC vials for analysis. The remaining concentration of cannabinoid or cannabinoid glycoside was quantified by comparing to authentic analytical standards. Determining the presence of degradation products were determined by comparing with authentic analytical standards.
CBD, CBD-1′-O-β-D-glucoside (OB1), and CBD-1′-O-β-D-glucosyl-3′-O-β-D-glucoside (OB6) were exposed to oxidative, alkaline, acidic and heat conditions as described above, and their degradation quantified by HPLC analysis by measuring the amount of compound remaining in solution after 24 h exposure to a given condition and expressed as percent (%) remaining after 24 h exposure relative to a control at ambient conditions. Also measured was the accumulation of the known CBD degradation product THC, expressed as percent accumulated after 24 h exposure.

C=C(C)[C@@H]1CCC(C)=C[C@H]1c1c(O)cc(CCCCC)cc1O [CBD, cannabidiol, reference compound]
t1/2 [1]: 3.77 min | microsomal CLint at 1 μM ([1]; human, microsomes, pH 7.4): 368 ± 0.684 µL/min/mg | % of substrate remaining in solution ([2]; Acidic (pH 1.1), 24 h): 63.90% | % of substrate remaining in solution ([2]; Alkaline (pH 12.5), 24 h): 2.26% | % of substrate remaining in solution ([2]; Heat (60° c.), 24 h): 72.76% | % of substrate remaining in solution ([2]; Oxidative (H2O2 3%), 24 h): 70.56% | accumulation of degradation product THC ([2]; acidic and alkaline conditions, 24 h): degrades to THC | percent remaining after 24 h exposure relative to a control at ambient conditions ([2]; 30° C.): 2.26% | stability under stress conditions ([2]; all conditions tested (acidic, alkaline, oxidative, heat), 24 h): unstable under all conditions tested

C=C(C)[C@@H]1CCC(C)=C[C@H]1c1c(O)cc(CCCCC)cc1O[C@@H]1O[C@H](CO)[C@@H](O)[C@H](O)[C@H]1O [OB1, CBD-1′-O-β-D-glucoside]
CLint [1]: 1110 ± 0.312 μL/min/mg protein | t1/2 [1]: 1.24 min | % accumulation of THC-1′-O-β-D-glucoside (OB20) ([2]; Acidic (pH 1.1), 24 h): 1.61% | % of substrate remaining in solution ([2]; Acidic (pH 1.1), 24 h): 80.02% | % of substrate remaining in solution ([2]; Alkaline (pH 12.5), 24 h): 100.27% | % of substrate remaining in solution ([2]; Heat (60° c.), 24 h): 84.35% | % of substrate remaining in solution ([2]; Oxidative (H2O2 3%), 24 h): 92.98% | accumulation of degradation product THC-1′-O-β-D-glucoside (OB20) ([2]; acidic conditions (HCl, final pH 1.1), 30° C., 24 h): a small amount of THC-1′-O-β-D-glucoside (OB20) was detected | percent remaining after 24 h exposure relative to a control at ambient conditions ([2]; 30° C.): 100% | release of CBD aglycone (stability of the glucoside bond) ([2]; 24 h): no CBD aglycone was detected

C=C(C)[C@@H]1CCC(C)=C[C@H]1c1c(O[C@@H]2O[C@H](CO)[C@@H](O)[C@H](O)[C@H]2O)cc(CCCCC)cc1O[C@@H]1O[C@H](CO)[C@@H](O)[C@H](O)[C@H]1O [OB6, CBD-1′-O-β-D-glucosyl-3′-O-β-D-glucoside]
decrease in intrinsic clearance versus CBD ([1]; human liver microsomes): 50 fold | increase in half-life versus CBD ([1]; human liver microsomes): 50 fold | CLint [1]: 7.39 ± 1.32 μL/min/mg protein | t1/2 [1]: 188 min | % of substrate remaining in solution ([2]; Acidic (pH 1.1), 24 h): 91.90% | % of substrate remaining in solution ([2]; Alkaline (pH 12.5), 24 h): 100.62% | % of substrate remaining in solution ([2]; Heat (60° c.), 24 h): 80.79% | % of substrate remaining in solution ([2]; Oxidative (H2O2 3%), 24 h): 74.98% | percent remaining after 24 h exposure relative to a control at ambient conditions ([2]; 30° C.): 100% | release of CBD aglycone (stability of the glucoside bond) ([2]; 24 h): no CBD aglycone was detected | accumulation of THC or THC-glucoside ([2]; any of the conditions (acidic, alkaline, oxidative, heat), 24 h): no THC or THC-glucoside was detected
